# Data taken from publication PMC3510187, “1-Anilino-8-Naphthalene Sulfonate (ANS) Is Not a Desirable Probe for Determining the Molten Globule State of Chymopapain” (PLoS ONE, 2012).
# Target: T1, chymopapain (Carica papaya, UniProt P14080)
# T1 construct: native mature enzyme from papaya latex, commercial (Sigma C8526), dialysed; monomer; acid-unfolded states in the assay
# Assay: isothermal titration calorimetry (two sets of independent sites)
# Settings: read-out: High affinity binding site / K1 (M^-1)
# Description: isothermal titration calorimetry (two sets of independent sites) on chymopapain
# T1 sequence (P14080 135-352): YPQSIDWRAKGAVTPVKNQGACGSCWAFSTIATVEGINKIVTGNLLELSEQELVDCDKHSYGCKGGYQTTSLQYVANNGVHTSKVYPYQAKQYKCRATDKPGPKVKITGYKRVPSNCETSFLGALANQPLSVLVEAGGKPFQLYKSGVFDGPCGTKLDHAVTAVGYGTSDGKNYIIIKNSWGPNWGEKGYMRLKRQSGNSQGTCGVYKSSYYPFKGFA
structure (smiles),measurement,value
O=S(=O)(O)c1cccc2cccc(Nc3ccccc3)c12 [1-anilino-8-naphthalene sulfonate],Kd,2940 nM
